Measurements from ChEMBL document CHEMBL3885881, “DrugMatrix”.

Species on record: Rattus norvegicus
Assay: DrugMatrix - Regimen: Daily Repeat
Type: toxicity, organism-based, Sprague-Dawley
Design: regimen Daily Repeat, gender Male, age 6-8 weeks
Settings: in vivo, po, route oral GAVAGE, vehicle .5 % CMC; for ABSOLUTE BASOPHIL / ABSOLUTE EOSINOPHIL / ABSOLUTE LYMPHOCYTE / ABSOLUTE MONOCYTE / ABSOLUTE SEGMENTED NEUTROPHIL / BASOPHIL / EOSINOPHIL / ERYTHROCYTE COUNT / HEMATOCRIT / HEMOGLOBIN / LEUKOCYTE COUNT / LYMPHOCYTE / MEAN CORPUSCULAR HEMOGLOBIN / MEAN CORPUSCULAR HEMOGLOBIN CONCENTRATION / MEAN CORPUSCULAR VOLUME / MONOCYTE / NEUTROPHIL / NUCLEATED RED BLOOD CELLS / PLATELET COUNT: tissue Blood; for ALANINE AMINOTRANSFERASE / ALBUMIN / ALKALINE PHOSPHATASE / ASPARTATE AMINOTRANSFERASE / BLOOD UREA NITROGEN / CARBON DIOXIDE / CHLORIDE / CHOLESTEROL / CREATINE PHOSPHOKINASE / CREATININE / GLUCOSE / LACTATE DEHYDROGENASE / LIPASE / PHOSPHORUS / POTASSIUM / SODIUM / TOTAL BILIRUBIN / TOTAL PROTEIN / URIC ACID: tissue Plasma
[1] = 8 mg/kg, 72 h, dose level High, time 3 day
[2] = 8 mg/kg, 120 h, dose level High, time 5 day
[3] = […], 72 h, dose 2.1 mg/Kg, dose level Low, time 3 day
[4] = […], 120 h, dose 2.1 mg/Kg, dose level Low, time 5 day

C=C1CC[C@H](O)C/C1=C/C=C1\CCC[C@]2(C)[C@@H]([C@H](C)CCCC(C)C)CC[C@@H]12 [CHOLECALCIFEROL]
ABSOLUTE BASOPHIL [1]: 0 CELLS/uL
ABSOLUTE EOSINOPHIL [1]: 42 CELLS/uL
ABSOLUTE LYMPHOCYTE [1]: 8592.67 CELLS/uL
ABSOLUTE MONOCYTE [1]: 336 CELLS/uL
ABSOLUTE SEGMENTED NEUTROPHIL [1]: 5029.33 CELLS/uL
BASOPHIL [1]: 0%
EOSINOPHIL [1]: 0.33%
ERYTHROCYTE COUNT [1]: 5.75 x10E6/uL
HEMATOCRIT [1]: 36.93%
HEMOGLOBIN [1]: 14.13 G/DL
LEUKOCYTE COUNT [1]: 14 x10E3/uL
LYMPHOCYTE [1]: 61.67%
MEAN CORPUSCULAR HEMOGLOBIN [1]: 24.7 pg
MEAN CORPUSCULAR HEMOGLOBIN CONCENTRATION [1]: 38.27 G/DL
MEAN CORPUSCULAR VOLUME [1]: 64.53 fL
MONOCYTE [1]: 2.33%
NEUTROPHIL [1]: 35.67%
NUCLEATED RED BLOOD CELLS [1]: 0.33 /100WBC
PLATELET COUNT [1]: 1172.33 x10E3/uL
ALANINE AMINOTRANSFERASE [1]: 38.67 u/L
ALBUMIN [1]: 4 G/DL
ALKALINE PHOSPHATASE [1]: 218 u/L
ASPARTATE AMINOTRANSFERASE [1]: 93 u/L
BLOOD UREA NITROGEN [1]: 15.67 mg/dL
CARBON DIOXIDE [1]: 25 mmol/L
CHLORIDE [1]: 99.67 MEQ/L
CHOLESTEROL [1]: 85.33 mg/dL
CREATINE PHOSPHOKINASE [1]: 273 u/L
CREATININE [1]: 0.19 mg/dL
GLUCOSE [1]: 119.67 mg/dL
LACTATE DEHYDROGENASE [1]: 381 u/L
LIPASE [1]: 8.33 u/L
PHOSPHORUS [1]: 12.67 mg/dL
POTASSIUM [1]: 6.05 MEQ/L
SODIUM [1]: 144.53 MEQ/L
TOTAL BILIRUBIN [1]: 0.1 mg/dL
TOTAL PROTEIN [1]: 6.3 G/DL
URIC ACID [1]: 1.7 mg/dL
ABSOLUTE BASOPHIL [2]: 0 CELLS/uL
ABSOLUTE EOSINOPHIL [2]: 61.33 CELLS/uL
ABSOLUTE LYMPHOCYTE [2]: 15719.67 CELLS/uL
ABSOLUTE MONOCYTE [2]: 721.33 CELLS/uL
ABSOLUTE SEGMENTED NEUTROPHIL [2]: 1931 CELLS/uL
BASOPHIL [2]: 0%
EOSINOPHIL [2]: 0.33%
ERYTHROCYTE COUNT [2]: 6.73 x10E6/uL
HEMATOCRIT [2]: 40.8%
HEMOGLOBIN [2]: 16.17 G/DL
LEUKOCYTE COUNT [2]: 18.43 x10E3/uL
LYMPHOCYTE [2]: 84.33%
MEAN CORPUSCULAR HEMOGLOBIN [2]: 24 pg
MEAN CORPUSCULAR HEMOGLOBIN CONCENTRATION [2]: 39.67 G/DL
MEAN CORPUSCULAR VOLUME [2]: 60.73 fL
MONOCYTE [2]: 4%
NEUTROPHIL [2]: 11.33%
NUCLEATED RED BLOOD CELLS [2]: 0.33 /100WBC
PLATELET COUNT [2]: 1207.33 x10E3/uL
ALANINE AMINOTRANSFERASE [2]: 32.67 u/L
ALBUMIN [2]: 3.77 G/DL
ALKALINE PHOSPHATASE [2]: 216 u/L
ASPARTATE AMINOTRANSFERASE [2]: 95.67 u/L
BLOOD UREA NITROGEN [2]: 30.67 mg/dL
CARBON DIOXIDE [2]: 29.33 mmol/L
CHLORIDE [2]: 97 MEQ/L
CHOLESTEROL [2]: 84.33 mg/dL
CREATINE PHOSPHOKINASE [2]: 292 u/L
CREATININE [2]: 0.31 mg/dL
GLUCOSE [2]: 184 mg/dL
LACTATE DEHYDROGENASE [2]: 195.33 u/L
LIPASE [2]: 8 u/L
PHOSPHORUS [2]: 12.17 mg/dL
POTASSIUM [2]: 6.13 MEQ/L
SODIUM [2]: 142.43 MEQ/L
TOTAL BILIRUBIN [2]: 0.1 mg/dL
TOTAL PROTEIN [2]: 6.37 G/DL
URIC ACID [2]: 2.97 mg/dL
ABSOLUTE BASOPHIL [3]: 0 CELLS/uL
ABSOLUTE EOSINOPHIL [3]: 0 CELLS/uL
ABSOLUTE LYMPHOCYTE [3]: 13778.67 CELLS/uL
ABSOLUTE MONOCYTE [3]: 303 CELLS/uL
ABSOLUTE SEGMENTED NEUTROPHIL [3]: 1018.33 CELLS/uL
BASOPHIL [3]: 0%
EOSINOPHIL [3]: 0%
ERYTHROCYTE COUNT [3]: 5.26 x10E6/uL
HEMATOCRIT [3]: 33.23%
HEMOGLOBIN [3]: 13.23 G/DL
LEUKOCYTE COUNT [3]: 15.1 x10E3/uL
LYMPHOCYTE [3]: 91.33%
MEAN CORPUSCULAR HEMOGLOBIN [3]: 25.17 pg
MEAN CORPUSCULAR HEMOGLOBIN CONCENTRATION [3]: 39.83 G/DL
MEAN CORPUSCULAR VOLUME [3]: 63.27 fL
MONOCYTE [3]: 2%
NEUTROPHIL [3]: 6.67%
NUCLEATED RED BLOOD CELLS [3]: 0.33 /100WBC
PLATELET COUNT [3]: 1338.67 x10E3/uL
ALANINE AMINOTRANSFERASE [3]: 64.33 u/L
ALBUMIN [3]: 4.5 G/DL
ALKALINE PHOSPHATASE [3]: 325 u/L
ASPARTATE AMINOTRANSFERASE [3]: 90.33 u/L
BLOOD UREA NITROGEN [3]: 18 mg/dL
CARBON DIOXIDE [3]: 24 mmol/L
CHLORIDE [3]: 102.33 MEQ/L
CHOLESTEROL [3]: 85.67 mg/dL
CREATINE PHOSPHOKINASE [3]: 170.67 u/L
CREATININE [3]: 0.22 mg/dL
GLUCOSE [3]: 154.33 mg/dL
LACTATE DEHYDROGENASE [3]: 246.33 u/L
LIPASE [3]: 9.33 u/L
PHOSPHORUS [3]: 15.17 mg/dL
POTASSIUM [3]: 7.26 MEQ/L
SODIUM [3]: 149.17 MEQ/L
TOTAL BILIRUBIN [3]: 0.33 mg/dL
TOTAL PROTEIN [3]: 6.3 G/DL
URIC ACID [3]: 1.63 mg/dL
ABSOLUTE BASOPHIL [4]: 0 CELLS/uL
ABSOLUTE EOSINOPHIL [4]: 46.67 CELLS/uL
ABSOLUTE LYMPHOCYTE [4]: 13112 CELLS/uL
ABSOLUTE MONOCYTE [4]: 47.33 CELLS/uL
ABSOLUTE SEGMENTED NEUTROPHIL [4]: 1427.33 CELLS/uL
BASOPHIL [4]: 0%
EOSINOPHIL [4]: 0.33%
ERYTHROCYTE COUNT [4]: 5.69 x10E6/uL
HEMATOCRIT [4]: 37.6%
HEMOGLOBIN [4]: 14.5 G/DL
LEUKOCYTE COUNT [4]: 14.63 x10E3/uL
LYMPHOCYTE [4]: 89.67%
MEAN CORPUSCULAR HEMOGLOBIN [4]: 25.53 pg
MEAN CORPUSCULAR HEMOGLOBIN CONCENTRATION [4]: 38.57 G/DL
MEAN CORPUSCULAR VOLUME [4]: 66.17 fL
MONOCYTE [4]: 0.33%
NEUTROPHIL [4]: 9.67%
NUCLEATED RED BLOOD CELLS [4]: 0.33 /100WBC
PLATELET COUNT [4]: 1071 x10E3/uL
ALANINE AMINOTRANSFERASE [4]: 53 u/L
ALBUMIN [4]: 4.6 G/DL
ALKALINE PHOSPHATASE [4]: 301.33 u/L
ASPARTATE AMINOTRANSFERASE [4]: 84 u/L
BLOOD UREA NITROGEN [4]: 19.67 mg/dL
CARBON DIOXIDE [4]: 31.67 mmol/L
CHLORIDE [4]: 97.33 MEQ/L
CHOLESTEROL [4]: 72.33 mg/dL
CREATINE PHOSPHOKINASE [4]: 267.33 u/L
CREATININE [4]: 0.24 mg/dL
GLUCOSE [4]: 143.33 mg/dL
LACTATE DEHYDROGENASE [4]: 287 u/L
LIPASE [4]: 8.67 u/L
PHOSPHORUS [4]: 11.33 mg/dL
POTASSIUM [4]: 6.64 MEQ/L
SODIUM [4]: 141.97 MEQ/L
TOTAL BILIRUBIN [4]: 0.2 mg/dL
URIC ACID [4]: 1.67 mg/dL
